Laboratory results published in ChEMBL document CHEMBL6109176, “Drug-like Antagonists of P2Y Receptor Subtypes: An Update” (J Med Chem, 2025).
Each block holds one molecule with its values, some of them ahead of it.

How the values were obtained:
P2Y purinoceptor 12 [1] = target: T1, P2Y purinoceptor 12 (Homo sapiens, UniProt Q9H244); experiment: Inhibition of P2Y12R (unknown origin) by HTS assay
P2Y purinoceptor 1 [2] = target: T2, P2Y purinoceptor 1 (Homo sapiens, UniProt P47900); experiment: inhibition of P2Y1R (unknown origin)
T2 sequence (P47900 whole entry): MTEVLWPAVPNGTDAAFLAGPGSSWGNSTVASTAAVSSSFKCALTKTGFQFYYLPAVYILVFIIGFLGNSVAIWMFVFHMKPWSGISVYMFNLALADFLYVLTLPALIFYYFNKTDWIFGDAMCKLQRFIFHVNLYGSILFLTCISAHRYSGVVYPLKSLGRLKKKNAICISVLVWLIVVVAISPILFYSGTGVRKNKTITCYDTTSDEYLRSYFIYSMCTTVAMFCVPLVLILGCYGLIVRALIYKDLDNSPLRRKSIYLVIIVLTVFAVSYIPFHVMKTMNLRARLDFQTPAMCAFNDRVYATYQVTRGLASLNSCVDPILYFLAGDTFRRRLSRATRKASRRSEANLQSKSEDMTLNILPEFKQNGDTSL

P2Y purinoceptor 1 [3] = target: T2, P2Y purinoceptor 1; experiment: Binding affinity yo human P2Y1R extracted from baculovirus infected Sf9 cells assessed as inhibition constant incubated for 30 mins
P2Y purinoceptor 2 = P2Y purinoceptor 2 (Homo sapiens, UniProt P41231); experiment: Antagonist activity at human P2Y2R stably expressed in 1321N1 cells assessed as UTP-induced Ca2+ accumulation preincubated with compound for 30 mins followed by UTP addition by […]; type: functional, cell-based
P2Y purinoceptor 2, sequence (P41231 whole entry): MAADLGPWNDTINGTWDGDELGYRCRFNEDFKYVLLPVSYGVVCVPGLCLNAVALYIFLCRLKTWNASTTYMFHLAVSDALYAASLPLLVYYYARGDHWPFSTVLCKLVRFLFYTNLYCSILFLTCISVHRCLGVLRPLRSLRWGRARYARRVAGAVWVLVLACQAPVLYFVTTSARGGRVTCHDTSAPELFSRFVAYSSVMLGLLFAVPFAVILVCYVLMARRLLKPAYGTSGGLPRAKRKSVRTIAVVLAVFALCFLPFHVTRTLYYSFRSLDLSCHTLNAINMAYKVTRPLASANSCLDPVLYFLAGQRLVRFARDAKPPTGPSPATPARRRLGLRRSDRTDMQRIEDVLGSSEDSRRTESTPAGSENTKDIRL

[4] = Antagonist activity at P2Y14R (unknown origin); parameters: species or system Homo sapiens
P2Y purinoceptor 14 = target: T3, P2Y purinoceptor 14 (Homo sapiens, UniProt Q15391); experiment: Binding affinity to P2Y14R (unknown origin) expressed in CHO cells assessed as inhibition constant; type: cell-based
T3 sequence (Q15391 whole entry): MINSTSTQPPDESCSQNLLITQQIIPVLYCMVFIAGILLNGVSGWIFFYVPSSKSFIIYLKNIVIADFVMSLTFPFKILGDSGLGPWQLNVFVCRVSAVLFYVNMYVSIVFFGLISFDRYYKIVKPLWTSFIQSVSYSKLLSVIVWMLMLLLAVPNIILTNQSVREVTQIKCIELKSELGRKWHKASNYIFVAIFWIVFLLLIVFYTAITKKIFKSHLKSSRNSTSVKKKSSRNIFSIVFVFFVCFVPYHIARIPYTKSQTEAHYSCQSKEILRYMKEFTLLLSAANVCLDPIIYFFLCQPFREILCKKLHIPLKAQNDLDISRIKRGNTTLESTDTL

P2Y purinoceptor 12 [5] = target: T1, P2Y purinoceptor 12; experiment: Antagonist activity at P2Y12R (unknown origin)
[6] = Inhibition of platelet aggregation in human platelet rich plasma preincubated for 5 mins followed by aggregation inducer addition and measured after 5 mins by light transmission aggregation method; type: functional
P2Y purinoceptor 12 [7] = target: T1, P2Y purinoceptor 12; experiment: Binding affinity to human P2Y12R expressed in CHO cells assessed as dissociation constant SPR assay

T1 sequence (Q9H244 whole entry): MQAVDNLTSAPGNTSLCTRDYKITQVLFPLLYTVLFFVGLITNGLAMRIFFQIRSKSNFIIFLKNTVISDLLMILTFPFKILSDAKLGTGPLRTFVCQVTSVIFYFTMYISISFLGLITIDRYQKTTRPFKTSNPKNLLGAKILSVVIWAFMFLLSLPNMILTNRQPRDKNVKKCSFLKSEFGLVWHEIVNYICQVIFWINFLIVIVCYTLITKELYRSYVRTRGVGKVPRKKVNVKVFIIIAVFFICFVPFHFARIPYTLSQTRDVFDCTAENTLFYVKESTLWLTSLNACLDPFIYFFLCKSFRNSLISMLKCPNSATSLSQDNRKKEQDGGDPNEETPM

IC50 (P2Y purinoceptor 12 [1]): 97 nM
Structure (SMILES): CCOC(=O)N1CCN(C(=O)[C@H](CCC(=O)O)NC(=O)c2cc(OC(C)(C)C(=O)OCC)c3ccc(C)cc3n2)CC1

IC50 (P2Y purinoceptor 1 [2]): 1100 nM
Structure (SMILES): Cc1nc(/N=N/c2cc([N+](=O)[O-])ccc2Cl)c(COP(=O)(O)O)c(C=O)c1O

IC50 (P2Y purinoceptor 12 [1]): 290 nM
Structure (SMILES): CCOC(=O)N1CCN(C(=O)[C@H](CCC(=O)O)NC(=O)c2cc(OC(C)(C)C(=O)O)c3ccc(C)cc3n2)CC1

Ki (P2Y purinoceptor 1 [3]): 0.79 nM
Structure (SMILES): CNc1nc(I)nc2c1ncn2[C@H]1C[C@H](OP(=O)(O)O)[C@]2(COP(=O)(O)O)C[C@H]12

IC50 (P2Y purinoceptor 1 [2]): 660 nM
Structure (SMILES): Cc1nc(/N=N/c2ccc(Cl)c([N+](=O)[O-])c2)c(COP(=O)(O)O)c(C=O)c1O

IC50 (P2Y purinoceptor 2): 10900 nM
Structure (SMILES): Cc1cc(O)c(C2=Nc3cc(C(F)(F)F)ccc3SC(c3cccc(O)c3)C2)c(=O)o1 (stereo not drawn)

IC50 [4]: 12.8 nM
Structure (SMILES): O=C(O)c1cc(-c2ccc(-c3cn([C@@H]4O[C@H](CO)[C@@H](O)[C@H](O)[C@H]4O)nn3)cc2)c2ccc(-c3ccc(C(F)(F)F)cc3)cc2c1

IC50 [4]: 5.12 nM
Structure (SMILES): CC(NC(=O)C(C)c1ccc(-c2ccccc2)c(F)c1)C(=O)O (stereo not drawn)

Ki (P2Y purinoceptor 14): 0.08 nM
Structure (SMILES): N=C1C=CC2=C(c3ccc(C(=O)NCCCCCCn4cc(CCCCN5CCC(c6ccc(-c7cc(C(=O)O)cc8cc(-c9ccc(C(F)(F)F)cc9)ccc78)cc6)CC5)nn4)cc3C(=O)O)C3C=CC(N)=C(S(=O)(=O)O)C3OC2C1S(=O)(=O)O (stereo not drawn)

IC50 [4]: 2.4 nM
Structure (SMILES): O=C(O)c1cc(-c2ccc(C3CCN(CCc4cn([C@@H]5O[C@H](CO)[C@@H](O)[C@H](O)[C@H]5O)nn4)CC3)cc2)c2ccc(-c3ccc(C(F)(F)F)cc3)cc2c1

IC50 (P2Y purinoceptor 12 [5]): < 10000 nM
Structure (SMILES): CNc1cc2[nH]c(=O)n(-c3ccc(NC(=O)NS(=O)(=O)c4ccc(Cl)s4)cc3)c(=O)c2cc1F [ELINOGREL]

IC50 [6]: 14 nM
Kd (P2Y purinoceptor 12 [7]): 1.5 nM
Structure (SMILES): CCCCOC(=O)N1CCN(C(=O)[C@H](CP(=O)(O)O)NC(=O)c2cc(N3CC[C@H](OC)C3)nc(-c3ccccc3)n2)CC1 [SELATOGREL]
